Publication PMC6254286, “Quantitative Structure − Antiprotozoal Activity Relationships of Sesquiterpene Lactones ^†” (Molecules, 2009)
Where two headings read alike, the source gives them in different places.

Experiments:
[1] = tested on: T. cruzi Tulahuen strain C2C4; assay: In vitro activity against T. cruzi in L-6 host cells (beta-galactosidase/CPRG); format: cell-based, Trypanosoma cruzi; conditions: Trypanosoma cruzi, read-out: IC50 T. cruzi (Tcr)
Experimental: Trypanosoma cruzi. Rat skeletal myoblasts (L-6 cells) were seeded in 96-well microtiter plates at 2,000 cells/well in 100 µL RPMI 1640 medium with 10% FBS (fetal bovine serum) and 2 mM L-glutamine. After 24 hours the medium was removed and replaced by 100 µL per well containing 5,000 trypomastigote forms of T. cruzi Tulahuen strain C2C4 containing the β-galactosidase (Lac Z) gene. Fortyeight hours later the medium was removed from the wells and replaced by […] fresh medium with or without a serial drug dilution. Seven 3-fold dilutions were used covering a range from […]. Each drug was tested in duplicate. After 96 hours of incubation the plates were inspected under an inverted microscope to assure growth of the controls and sterility. Then the substrate CPRG/ Nonidet (50 µL) was added to all wells. A colour reaction developed within 2-6 hours and could be read photometrically at 540 nm.

[2] = tested on: Trypanosoma brucei rhodesiense STIB 900; assay: In vitro activity against T. brucei rhodesiense bloodstream forms (Alamar blue); format: cell-based; conditions: for IC50: mean of two independent measurements; for selectivity index (SI) with respect to Tbr: ratio of cytotoxic IC50 (L6) over IC50 against Tbr
Experimental: (§1) Trypanosoma brucei rhodesiense and cytotoxicity against L6 cells. Minimum Essential Medium with Earle’s salts (50 µL) supplemented with 0.2 mM 2-mercapto-ethanol, 1 mM Na-pyruvate and 15% heat-inactivated horse serum was added to each well of a 96-well microtiter plate. […] Then 10^4 bloodstream forms of Trypanosoma brucei rhodesiense STIB 900 in 50 µL of medium were added to each well and the plate incubated at 37°C under a 5% CO2 atmosphere for 72 hours. […] The plate was then read in a Spectramax Gemini XS microplate fluorometer (Molecular Devices Corporation, Sunnyvale, CA, USA) using an excitation wavelength of 536 nm and emission wavelength of 588 nm. Fluorescence development was measured and expressed as percentage of the control. Data were transferred into the graphic programme Softmax Pro (Molecular Devices) which calculated IC50 values. Cytotoxicity was assessed using a similar protocol and rat skeletal myoblasts (L6 cells). […] All following steps were according to the T. b. rhodesiense protocol.

[3] = Cytotoxicity against L6 cells (Alamar blue); conditions: rat; for IC50: IC50 Cytotoxicity (L6), L6 rat skeletal myoblasts, 72 h, mean of two independent measurements
Experimental: as §1

[4] = tested on: Leishmania donovani amastigotes (strain MHOM/ET/67/L82); assay: L. donovani axenic amastigote assay (resazurin); format: cell-based; conditions: for IC50: Leishmania donovani
Experimental: Leishmania donovani (axenic amastigote assay). […] Serial drug dilutions in duplicates were prepared covering a range from 30 to 0.041 µg/mL. […] The compounds used as positive controls in the various bioassays (see Table 1) were of commercial origin, with the exception of melarsoprol, which was a gift from WHO. Their purity (generally > 95%) was specified by the manufacturers.

[5] = tested on: K1 strain of P. falciparum; assay: Antiplasmodial [3H]-hypoxanthine incorporation assay; format: cell-based, Plasmodium falciparum; conditions: Plasmodium falciparum
Experimental: Plasmodium falciparum. Antiplasmodial activity was determined using the K1 strain of P. falciparum (resistant to chloroquine and pyrimethamine). A modification of the [3H]-hypoxanthine incorporation assay was used. Briefly, infected human red blood cells (final parasitaemia and haematocrit were 0.3% and 1.25%, respectively) in RPMI 1640 medium with 5% Albumax were exposed to serial drug dilutions in microtiter plates. After 48 hours of incubation at 37°C in a reduced oxygen atmosphere, 0.5 mCi 3H-hypoxanthine was added to each well. Cultures were incubated for a further 24 h before they were harvested onto glass-fiber filters and washed with distilled water. The radioactivity was counted using a BetaplateTM liquid scintillation counter (Wallac, Zurich, Switzerland). […] From the sigmoidal inhibition curves IC50 values were calculated. Assays were run in duplicate and repeated once.

[6] = Trypanosoma brucei, 72 h, read-out: IC50 T. brucei rhodes. (Tbr), bloodstream forms STIB 900, 72 h
[7] = L6, Tulahuen C2C4 in L-6 cells, 96 h, mean of two independent measurements
[8] = axenic amastigotes, pH 5.4, 72 h, mean of two independent measurements, read-out: IC50 L. donovani (Ldon)
[9] = K1, read-out: IC50 P. falciparum (Pfc)
[10] = Trypanosoma brucei, 72 h, bloodstream forms STIB 900, 72 h, read-out: IC50 T. brucei rhodes. (Tbr)
[11] = bloodstream forms STIB 900, 72 h, read-out: IC50 T. brucei rhodes. (Tbr)
[12] = TULAHUEN, L6, 96 h, Tulahuen C2C4 in L-6 cells, 96 h, mean of two independent measurements
[13] = 72 h, pH 5.4, axenic amastigotes, pH 5.4, 72 h, mean of two independent measurements, read-out: IC50 L. donovani (Ldon)
[14] = L6 cells (rat skeletal myoblasts)
[15] = K1, K1 strain (resistant to chloroquine and pyrimethamine), mean of two independent measurements, read-out: IC50 P. falciparum (Pfc)

Compound	IC50 [2, 10]	IC50 [3]	IC50 [1, 12]	IC50 [4, 13]	IC50 at 72 h [3, 14]	IC50 [5, 15]	further results
C=C1C(=O)O[C@@H]2C[C@@H](C)[C@@H]3C=CC(=O)[C@@]3(C)[C@@H](O)[C@H]12 [Compound 1, helenalin]	–	–	–	–	–	–	IC50 ([1]; TULAHUEN, L6, 96 h): 0.695 µM; IC50 [2, 6]: < 0.1 µM; IC50 ([2]; read-out: IC50 T. brucei rhodes. (Tbr), bloodstream forms STIB 900, 72 h): 0.052 µM; IC50 ([2]; read-out: IC50 T. brucei rhodes. (Tbr), bloodstream forms STIB 900, 72 h, listed as helenalin): 0.05 to 0.1 µM; IC50 at 72 h [3]: 0.992 µM
C=C1C(=O)OC2CC(C)C3C=CC(=O)C3(C)C(OC(C)=O)C12 (centres unmarked) [Compound 2]	< 0.1 µM	0.809 µM	–	–	–	–	IC50 [1, 7]: 0.538 µM; IC50 [4, 8]: 0.446 µM; IC50 [5, 9]: 0.329 µM; IC50 [2, 11]: 0.063 µM; selectivity index (SI) with respect to Tbr [2]: 13
C=C1C(=O)OC2CC(C)C3C=CC(=O)C3(C)C(OC(=O)C(C)C)C12 (centres unmarked) [Compound 3]	0.105 µM	1.03 µM	–	–	–	–	IC50 [1, 7]: 1.57 µM; IC50 [4, 8]: 0.837 µM; IC50 [5, 9]: 0.7 µM
C=C1C(=O)OC2CC(C)C3C=CC(=O)C3(C)C(OC(=O)CC(C)C)C12 (centres unmarked) [Compound 4]	0.116 µM	1.3 µM	–	–	–	–	IC50 [1, 7]: 2.48 µM; IC50 [4, 8]: 0.871 µM; IC50 [5, 9]: 0.822 µM
CC1CC2OC(=O)C(C)C2C(O)C2(C)C(=O)C=CC12 (centres unmarked) [Compound 5]	0.686 µM	8.9 µM	–	–	–	–	IC50 [1, 7]: 21.5 µM; IC50 [4, 8]: 3.85 µM; IC50 [5, 9]: 3.05 µM
CC(=O)OC1C2C(CC(C)C3C=CC(=O)C31C)OC(=O)C2C (centres unmarked) [Compound 6]	1.42 µM	–	6.93 µM	> 4 µM	3.06 µM	–	–
CC(C)CC(=O)OC1C2C(CC(C)C3C=CC(=O)C31C)OC(=O)C2C (centres unmarked) [Compound 7]	0.911 µM	–	3.53 µM	1.48 µM	4.58 µM	1.6 µM	–
C=C1C(=O)OC2CC(C)C3C=CC(=O)C3(C)C(O)C12 (centres unmarked) [Compound 8]	–	–	–	–	–	–	IC50 ([1]; TULAHUEN, L6, 96 h): 1.87 µM; IC50 ([4]; 72 h, pH 5.4, read-out: IC50 L. donovani (Ldon)): > 4 µM; IC50 [2, 6]: 0.319 µM; IC50 at 72 h [3]: 2.44 µM
C=C1C(=O)OC2CC(C)C3C(OC(C)=O)CC(O)C3(C)C(O)C12 (centres unmarked) [Compound 9]	9.28 µM	12.3 µM	45.8 µM	–	–	–	–
C=C1C(=O)OC2CC(C)C3C(OC(C)=O)CC(O)C3(C)CC12 (centres unmarked) [Compound 10]	6.71 µM	4.39 µM	20.4 µM	12.2 µM	–	6.46 µM	–
C=C1C(=O)OC2CC(C)C3C(O)CC(O)C3(C)CC12 (centres unmarked) [Compound 11]	18.3 µM	–	52.7 µM	20.6 µM	31.9 µM	12.1 µM	–
C=C1C(=O)OC2CC(C)C3C(O)CC(OC(=O)C(C)=CC)C3(C)C(O)C12 (centres unmarked) [Compound 12]	11 µM	16.7 µM	49.2 µM	18 µM	–	10.6 µM	–
C=C1C(=O)OC2CC(C)C3C(O)CC(O)C3(C)C(OC(=O)C(C)=CC)C12 (centres unmarked) [Compound 13]	19.2 µM	31.8 µM	–	–	–	–	IC50 [1, 7]: 60.2 µM; IC50 [4, 8]: 14.5 µM; IC50 [5, 9]: 27.5 µM
C=C1C(=O)OC2CC(C)C3C(OC(C)=O)CC(OC(C)=O)C3(C)CC12 (centres unmarked) [Compound 14]	1.17 µM	–	14.7 µM	4.26 µM	8.43 µM	8.94 µM	–
C=C1C(=O)OC2CC(C)C3C(OC(C)=O)CC(O)C3(C)C(OC(C)=O)C12 (centres unmarked) [Compound 15]	3.96 µM	7.28 µM	16.3 µM	8.68 µM	–	5.98 µM	–
C=C1C(=O)OC2CC(C)C3C(OC(C)=O)CC(O)C3(COC(C)=O)CC12 (centres unmarked) [Compound 16]	13.6 µM	–	44.9 µM	11.8 µM	21.6 µM	10.7 µM	–

Compound	IC50 [2, 10]	IC50 [3]	IC50 [1, 12]	IC50 [4, 13]	IC50 at 72 h [3, 14]	IC50 [5, 15]	further results
C=C1C(=O)OC2CC(C)C(CCC(C)=O)=CCC12 (centres unmarked) [Compound 17]	62.1 µM	–	> 120 µM	23.8 µM	179 µM	> 20 µM	–
C=C1C(=O)OC2CC3(C)C(CCC(C)=O)C3CC12 (centres unmarked) [Compound 20]	15.9 µM	–	39 µM	14.6 µM	–	12.7 µM	IC50 at 72 h [3]: 19.8 µM
C=C1C(=O)OC2CC(C)C3(O)C=C(C(C)=O)C4(CC3CC12)C(=O)OC1CC(C)C(C=CC(C)=O)=CCC14 (centres unmarked) [Compound 21]	0.638 µM	–	16.1 µM	22 µM	9.43 µM	4.96 µM	–
C=C1C(=O)OC2CC(C)C3(O)C=C(C(C)=O)C4(CC3CC12)C(=O)OC1CC(C)C2(C=CC(C)=O)OC2CC14 (centres unmarked) [Compound 22]	1.29 µM	–	95.4 µM	26.9 µM	13.3 µM	6.53 µM	–
CC1CC2OC(=O)C34CC5(C)C=CC13C(CC24)O5 (centres unmarked) [Compound 23]	162 µM	> 365 µM	> 120 µM	15.4 µM	–	> 20 µM	–
C=C1C(=O)OC2CC(C)C3=CC(=O)OC3CC12 (centres unmarked) [Compound 24]	8.21 µM	–	> 120 µM	27.1 µM	427 µM	> 20 µM	selectivity index (SI) with respect to Ldon ([4]; ratio of cytotoxic IC50 (L6) over IC50 against Ldon): 15; selectivity index (SI) with respect to Tbr [2]: 52
C=C1C(=O)OC2CC3(C)CC(OC(C)=O)CC(=C)C3CC12 (centres unmarked) [Compound 27]	10.7 µM	–	24.3 µM	11.8 µM	8.91 µM	9.21 µM	–
C=C1CC(O)CC2(C)CC3OC(=O)C(C)C3CC12 (centres unmarked) [Compound 28]	341 µM	–	> 120 µM	> 120 µM	187 µM	> 20 µM	–
C=C1C(=O)OC2CC3(C)CCCC(C)C3=CC12 (centres unmarked) [Compound 29]	2.62 µM	–	8.3 µM	3.03 µM	–	6.4 µM	IC50 at 72 h [3]: 5.99 µM
C=C1C(=O)OC2CC3(C)CC(=O)CC(C)C3=CC12 (centres unmarked) [Compound 30]	1.6 µM	–	17.3 µM	8.7 µM	10.2 µM	10.7 µM	–
C=C1C(=O)OC2C1CCC1(C)C(O)CCC(=C)C21 (centres unmarked) [Compound 31]	–	33.2 µM	28.9 µM	6.01 µM	–	12.1 µM	IC50 [2, 11]: 17.8 µM
O=C(Cn1ccnc1[N+](=O)[O-])NCc1ccccc1 [benznidazole, reference compound]	–	–	2 µM	–	–	–	–
CCN(CC)CCCC(C)Nc1ccnc2cc(Cl)ccc12 (centres unmarked) [chloroquine, reference compound]	–	–	–	–	–	–	IC50 [5, 9]: 0.248 µM
Nc1nc(N)nc(Nc2ccc([As]3SCC(CO)S3)cc2)n1 (centres unmarked) [melarsoprol, reference compound]	–	–	–	–	–	–	IC50 [2, 6]: 0.008 µM
CCCCCCCCCCCCCCCCOP(=O)([O-])OCC[N+](C)(C)C [miltefosine, reference compound]	–	–	–	0.27 µM	–	–	–
COc1cc([C@@H]2c3cc4c(cc3[C@H](O)[C@H]3COC(=O)[C@H]23)OCO4)cc(OC)c1OC [podophyllotoxin, reference compound]	–	–	–	–	–	–	IC50 at 72 h [3]: 0.012 µM
